Laboratory results published in patent US5506354A, “Imidazolylpiperazinyl steroids” (The Upjohn Company, priority 1992, dated 1996).
Counter-ions that a name gives are not always drawn.

How the values were obtained:
MDA formation = experiment: Malonyldialdehyde (MDA) Formation Assay (rat brain synaptosomes); format: biochemical; details: 10 min at 37°, pH 7.0; active = 50% or more at 200 μM or less
Procedure: Since lipid peroxidation is involved in the pathophysiology of center nervous system trauma, compounds which inhibit MDA formation are useful in treating the conditions listed below.
While not necessary to determine MDA formation, the above assays have been modified as follows: rat brain synaptosomes are prepared as described in the Example about the conjugated diene assay, except that the final wash of the synaptosomes and final suspension are in physiological (normal) saline in which the pH has been adjusted to 7.0. The synaptosomes are incubated for 10 min at 37° in physiological (normal) saline pH 7.0 (total volume=100 ul) containing; 10 ul synaptosomal suspension, 10% DMSO plus or minus drug, 150 uM Fe^+++ and 50 uM Fe++. The incubation is started by the rapid addition of iron to the otherwise complete reaction. The iron solutions are prepared fresh as ferric chloride and ferrous ammonium sulfate in argon-purged water. Following the 10 min incubation, the reaction is stopped by the addition of 500 ul ice-cold 12% trichloroacetic acid prepared in 0.5N hydrochloric acid. Water (300 ul) is then added along with 100 ul of freshly prepared thiobarbituric acid (3.3% in 0.5N sodium hydroxide) and 10 ul of 5 mM desferrioxamine. The sample is then heated in a boiling water bath for 20 minutes. The samples are cooled and centrifuged for 15 minutes at 1500×g and the absorbence of the supernatant fraction is read at 532 nm. The % inhibition of MDA formation is calculated by dividing the absorbance of sample containing drug by the absorbence of samples incubated without drug. Reaction blanks are samples incubated in the absence of iron. A compound that inhibits MDA formation by 50% or more at a concentration of 200 μM or less is considered "active".

interleukin-1 = experiment: Inhibition of interleukin-1 induced T cell proliferation; format: cell-based; details: for inhibition of interleukin 1 (activity in words): active = greater than 30% at 10^-6 M
Source text: The inhibition of interleukin-1 induced T cell proliferation assay, Proc. Nat. […] Since people with arthritis make excess interleukin 1, compounds which inhibit the activity of interleukin 1 are useful in the treatment of arthritis. According to this procedure compounds which inhibit the activity of interleukin 1 greater that 30% at 10^-6 M are considered to be "active".

angiogenesis = experiment: Chick embryo assay of Folkman (inhibition of angiogenesis / tumor growth); format: in vivo; details: 50 μg/10 μl in the presence of heparin
Procedure: According to this procedure compounds which are considered to be "active" (i.e. antiangiogenic) give an avascular zone of 4 mm or greater in some embryos when tested at 50 μg/10 μl in the presence of 50 μg/10μ of heparin.

arachidonic acid = experiment: Arachidonic Acid Antagonism Assay (AAAA), LD50 of sodium arachidonate; format: in vivo, Charles River male CF-1 mice; details: for arachidonic acid antagonism (activity in words): test compound IV 15 min before sodium arachidonate, LD50 outside 95% confidence interval of control
Procedure: Since these metabolites contribute to the pathological problems associated with stroke, spinal trauma and head injury, compounds which antagonize arachidonic acid are useful in treating stroke, spinal trauma and head injury.
While not necessary to determine arachidonic acid antagonism, the above assay has been modified as follows: Charles River male CF-1 mice weighing 18-22 g are treated IV with the test compound dissolved in 1.0% Tween-80 and 0.1% hydrochloric acid in distilled water, 0.2 ml total volume. Fifteen minutes later sodium arachidonate (90% pure) in physiological (normal) saline is injected into the tail vein. The LD50 is measured using the Spearman-Karber method with a log dose interval of 0.05 (N=6). Compounds which elevate the LD50 outside of the 95% confidence interval of the control LD50 are considered to be "active".

In the case of `CC(CN1CCN(c2cc(N3CCCC3)nc(N3CCCC3)n2)CC1)[C@H]1CC[C@H]2[C@@H]3CCC4=CC(=O)CC[C@]4(C)[C@H]3CC[C@]12C.Cl` (stereo partly drawn) [Example 107, 20-Methyl-21-[4-(2,6-bis(1-pyrrolidinyl)-4-pyrimidinyl)-1-piperazinyl]pregna-4-ene-3-one hydrochloride], the “inhibition of MDA formation (activity in words)” value (“inhibition of MDA formation” for short) (MDA formation) is reported as “demonstrate such activity”.

In the case of `C[C@@]12C(=CC(=O)C[C@@H]1C#N)CC[C@@H]1C2=CC[C@]2(C)[C@@H](CCN3CCN(c4cc(N5CCCC5)nc(N5CCCC5)n4)CC3)CC[C@@H]12.Cl.Cl.Cl.O` [Example 110, 21-[4-(2,6-Bis(1-pyrrolidinyl)4-pyrimidinyl)-1-piperazinyl]-1α-cyanopregna-4,9(11)-dien-3-one-trihydrochloride, hydrate], the “inhibition of MDA formation” value (MDA formation) is reported as “demonstrate such activity”.

With `CN1CCN(CC(=O)[C@@]2(O)CC[C@H]3[C@@H]4CCC5=CC(=O)CC[C@]5(C)C4=CC[C@@]32C)CC1` [Example 101, 17α-hydroxy-21-(4-methyl-1-piperazinyl)pregna-4,9(11)-diene-3,20-dione] the “inhibition of interleukin 1 (activity in words)” value (interleukin-1) was “demonstrate inhibition of interleukin 1”.

`C[C@]12CCC(=O)C=C1CC[C@@H]1C2=CC[C@]2(C)[C@@H](CCN3CCN(c4cc(N5CCCC5)nc(N5CCCC5)n4)CC3)CC[C@@H]12.Cl` [Example 104, 21-[4-(2,6-Bis(1-pyrrolidinyl)-4-pyrimidinyl)-1-piperazinyl]pregna-4,9(11)-dien-3-one hydrochloride] was tested, and the “inhibition of MDA formation” value (MDA formation) was “demonstrate such activity” and the “inhibition of angiogenesis (activity in words)” value (“inhibition of angiogenesis” below) (angiogenesis) was “demonstrate inhibition of angiogenesis”.

`CN(CCN(C)c1ccccn1)CC(=O)[C@@]1(O)CC[C@H]2[C@@H]3CCC4=CC(=O)CC[C@]4(C)C3=CC[C@@]21C` [Example 24, 17α-hydroxy-21-[methyl[2-(methyl-2-pyridinylamino)ethyl]-aminopregna-4,9(11)-diene-3,20-dione dihydrochloride] was tested, and the “arachidonic acid antagonism (activity in words)” value (“arachidonic acid antagonism” below) (arachidonic acid) was “demonstrate arachidonic acid antagonism” and the “inhibition of angiogenesis” value (angiogenesis) was “demonstrate inhibition of angiogenesis”.

With `COc1ccc(CCN(CC(=O)[C@@]2(O)CC[C@H]3[C@@H]4CCC5=CC(=O)CC[C@]5(C)C4=CC[C@@]32C)Cc2cc(OC)c(OC)c(OC)c2)cc1OC` [Example 37, 17α-hydroxy-21-[[2-(3,4-dimethoxy-phenyl)ethyl]-[3,4,5-trimethoxyphenyl)methyl]amino]pregna-4,9(11)diene-3,20-dione hydrochloride] the “inhibition of interleukin 1 (activity in words)” value (interleukin-1) was “demonstrate inhibition of interleukin 1” and the “inhibition of angiogenesis” value (angiogenesis) was “demonstrate inhibition of angiogenesis”.

In the case of `C[C@]12CC[C@H]3[C@@H](CCC4=CC(=O)C=C[C@@]43C)[C@@H]1CC[C@@H]2C(=O)CN1CCN(c2cc(N3CCCC3)nc(N3CCCC3)n2)CC1.Cl.Cl` [Example 97, 21-[4-[2,6-di-(1-pyrrolidinyl)-4-pyrimidinyl]-1-piperazinyl]-pregna-1,4-diene-3,20-dione dihydrochloride], the “inhibition of interleukin 1 (activity in words)” value (interleukin-1) is reported as “demonstrate inhibition of interleukin 1” and the “inhibition of angiogenesis” value (angiogenesis) is reported as “demonstrate inhibition of angiogenesis”.

`C[C@]12CC(=O)[C@H]3[C@@H](CCC4=CC(=O)CC[C@@]43C)[C@@H]1CC[C@@H]2C(=O)CN1CCN(c2cc(N3CCCC3)nc(N3CCCC3)n2)CC1.Cl.Cl` [Example 94, 21-[4-[2,6-bis(1-pyrrolidinyl)-4-pyrimidinyl]-1-piperazinyl]pregn-4-ene-3,11,20-trione dihydrochloride] was tested, and the “inhibition of interleukin 1 (activity in words)” value (interleukin-1) was “demonstrate inhibition of interleukin 1”.

For `COc1ccc2c(c1)CC[C@@H]1[C@@H]2CC[C@@]2(C)[C@H]1CC[C@]2(O)C(=O)CN1CCN(c2cc(N3CCCC3)nc(N3CCCC3)n2)CC1` [Example 125, 3,17α-Dihydroxy-21-[4-[2,6-bis(1-pyrrolidinyl)-4-pyrimidinyl]-1-piperazinyl]-19-norpregna-1,3,5(10)-trien-20-one 3-methyl ether (E)-2-butenedioate 1:1 salt], the “inhibition of MDA formation” value (MDA formation) was “demonstrate such activity”.

In the case of `C[C@@H]1C[C@H]2[C@@H]3CCC4=CC(=O)C=C[C@]4(C)[C@H]3CC[C@]2(C)[C@H]1C(=O)CN1CCN(c2cc(N3CCCC3)nc(N3CCCC3)n2)CC1.Cl.Cl` [Example 121, 16α-Methyl-21-[4-[2,6-bis(1-pyrrolidinyl)-4-pyrimidinyl]-1-piperazinyl]-pregna-1,4-diene-3,20-dione dihydrochloride], the “inhibition of MDA formation” value (MDA formation) is reported as “demonstrate such activity”.

With `C[C@H]1C[C@@H]2[C@H]([C@@H](O)C[C@@]3(C)[C@H]2CC[C@]3(O)C(=O)CN2CCN(c3ccccn3)CC2)[C@@]2(C)C=CC(=O)C=C12` [Example 21, 11β,17α-dihydroxy-6α-methyl-21-[4-(2-pyridinyl)-1-piperazinyl]pregna-1,4-diene-3,20-dione] the “arachidonic acid antagonism” value (arachidonic acid) was “demonstrate arachidonic acid antagonism”, the “inhibition of interleukin 1 (activity in words)” value (interleukin-1) was “demonstrate inhibition of interleukin 1” and the “% of Embryos with 4 mm or Greater Avascular Zone” value (angiogenesis) was 91%. For the same molecule, the “inhibition of angiogenesis” value (angiogenesis) was “demonstrate inhibition of angiogenesis”.

In the case of `C[C@H]1C[C@H]2[C@@H]3C[C@H](F)C4=CC(=O)CC[C@]4(C)C3=CC[C@]2(C)[C@@]1(O)C(=O)CN1CCN(c2cc(N3CCCC3)nc(N3CCCC3)n2)CC1` [Example 118, 6αa-Fluoro-17α-hydroxy-16β-methyl-21-[4-[2,6-bis(1-pyrrolidinyl)-4-pyrimidinyl]-1-piperazinyl]-pregna-4,9(11)-diene-3,20-dione dihydrochloride], the “inhibition of MDA formation” value (MDA formation) is reported as “demonstrate such activity”.

In the case of `COc1cccc(N2CCN(CC(=O)[C@@]3(O)CC[C@H]4[C@@H]5CCC6=CC(=O)CC[C@]6(C)C5=CC[C@@]43C)CC2)n1.CS(=O)(=O)O` [Example 22, 17α-hydroxy-21-[4-(6-methoxy-2-pyridinyl)-1-piperazinyl]pregna-4,9(11)-diene-3,20-dione monomethanesulfonate], the “arachidonic acid antagonism” value (arachidonic acid) is reported as “demonstrate arachidonic acid antagonism”.

With `CCN(CC)c1ccc(N(C)C)c(N2CCN(CC(=O)[C@@]3(O)CC[C@H]4[C@@H]5CCC6=CC(=O)CC[C@]6(C)C5=CC[C@@]43C)CC2)n1.Cl.Cl` [Example 96, 21-[4-[6-(diethylamino)-3-(dimethylamino)-2-pyridinyl]-1-piperazinyl]-17α-hydroxypregna-4,9(11)-diene-3,20-dione dihydrochloride] the “inhibition of interleukin 1 (activity in words)” value (interleukin-1) was “demonstrate inhibition of interleukin 1” and the “% Inhibition at 10^-6 M” value (interleukin-1; interleukin 1, 10^-6 M) was 77%.

For `CCN(CC)c1cc(N2CCN(C(=O)[C@@]3(O)CC[C@H]4[C@@H]5CCC6=CC(=O)CC[C@]6(C)[C@H]5CC[C@@]43C)CC2)nc(N(CC)CC)n1` [Example 57], the “% of Control LD50 100 mg/kg” value (arachidonic acid; 100 mg/kg, test compound IV) was 124% and the “arachidonic acid antagonism” value (arachidonic acid) was “demonstrate arachidonic acid antagonism”.

In the case of `C[C@]12CC[C@@H]3c4ccc(O)cc4CC[C@H]3[C@@H]1CC[C@]2(O)C(=O)CN1CCN(c2cc(N3CCCC3)nc(N3CCCC3)n2)CC1` [Example 129, 3,17α-Dihydroxy-21-[4-[2,6-bis(1-pyrrolidinyl)-4-pyrimidinyl]-1-piperazinyl]-19-norpregna-1,3,5(10)-trien-20-one (E)-2-butenedioate 1:1 salt], the “inhibition of MDA formation” value (MDA formation) is reported as “demonstrate such activity”.

With `COc1ccccc1N1CCN(CC(=O)[C@@]2(O)CC[C@H]3[C@@H]4CCC5=CC(=O)CC[C@]5(C)[C@H]4CC[C@@]32C)CC1.Cl.Cl.O` [Example 41, 17α-hydroxy-21-[4-(2-methoxyphenyl)-1-piperazinyl]pregn-4-ene-3,20-dione dihydrochloride hydrate] the “arachidonic acid antagonism” value (arachidonic acid) was “demonstrate arachidonic acid antagonism” and the “% of Embryos with 4 mm or Greater Avascular Zone” value (angiogenesis) was 80%.
